By inhibition is commonly meant the change of the read-out against control, counted positive when it falls.

This note sets out measurements from US10363239B2, “Method for inhibiting growth of cancer cells” (Pain Therapeutics, Inc., priority 2013, dated 2019).

Where two headings read alike, the source gives them in different places.

The target of assay [1] is FLNA pentapeptide of SEQ ID NO: 1 (Bn-VAKGL) (Homo sapiens, UniProt P21333). As to the kind of experiment: FITC-NLX-based FLNA screening assay (inhibition of FITC-naloxone binding to Bn-VAKGL on streptavidin plates). The following applies: for Percent Binding Inhibition / inhibition at 0.01 µM / inhibition at 0.1 µM / inhibition at 1 µM: 10 nM FITC-NLX.
For a further assay, the system named is mu opiate receptor (MOR). Description: MOR agonist activity using [35S]GTPγS binding assay in striatal membranes. Format: biochemical. Particulars: for MOR agonist activity ([35S]GTPγS binding), FLNA-Binding Compound as Agonist 1 μM + BFNA: 1 μM compound + 1 μM β-funaltrexamine. In outline: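 Striatal membranes (200 μg) were preincubated 5 min at 30 °C in HEPES pH 7.5 with 100 mM NaCl, 1 mM MgCl2 and 0.5 nM [35S]GTPγS, then 5 min more with 0.1–10 μM compound. Gαo was immunoprecipitated and bound radioactivity counted by scintillation.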

The mark [2] stands for this setting: 0.1 μM compound relative to DAMGO.
Where [3] appears, read: 1 μM compound + BFNA relative to DAMGO + BFNA.
The mark [4] stands for this setting: 1 μM compound relative to DAMGO.
The mark [5] stands for this setting: read-out: Percent Binding Inhibition, FLNA-binding compound 0.01 μM.
[6] abbreviates: read-out: Percent Binding Inhibition, FLNA-binding compound 0.1 μM.
Where [7] appears, read: read-out: Percent Binding Inhibition, FLNA-binding compound 1 μM.
Where [8] appears, read: Series C-1, 0.1 μM compound, relative to DAMGO.
Where [9] appears, read: Series C-1, 0.1 μM compound, [35S]GTPγS binding to Gαo, striatal membranes.
Where [10] appears, read: Series C-1, 1 μM compound + 1 μM β-FNA.
[11] abbreviates: Series C-1, 1 μM compound + β-FNA, relative to DAMGO + BFNA.
Setting [12] is: Series C-1, 1 μM compound, relative to DAMGO.
Where [13] appears, read: Series C-1, 1 μM compound, [35S]GTPγS binding to Gαo, striatal membranes.
Where [14] appears, read: FLNA-binding compound 0.01 μM, read-out: Percent Binding Inhibition.
[15] abbreviates: FLNA-binding compound 0.1 μM, read-out: Percent Binding Inhibition.
The mark [16] stands for this setting: FLNA-binding compound 1 μM, read-out: Percent Binding Inhibition.

For `COc1ccc(OCC(O)CN2CCCc3ccccc32)cc1` (centres unmarked) [Compound A0067], the figures for the “Percent Binding Inhibition” value in assay [1] (FLNA-binding compound 0.01 μM), in assay [1] (FLNA-binding compound 0.1 μM) and in assay [1] (FLNA-binding compound 1 μM) were 32.7%, 39.1% and 44.3%, respectively. In addition, the “MOR agonist activity ([35S]GTPγS binding), FLNA-Binding Compound as Agonist 0.1 μM” value in the assay on mu opiate receptor (MOR) (0.1 μM compound) is recorded as 170.8%. In addition, the “% DAMGO (0.1 μM)” value with mu opiate receptor (MOR) (setting [2]) worked out at 99.2%. Moreover, in the assay on mu opiate receptor (MOR) (1 μM compound), the “MOR agonist activity ([35S]GTPγS binding), FLNA-Binding Compound as Agonist 1 μM” value is 254.4%. In the assay on mu opiate receptor (MOR), the “MOR agonist activity ([35S]GTPγS binding), FLNA-Binding Compound as Agonist 1 μM + BFNA” value is listed as 33.9%. Further, in the assay on mu opiate receptor (MOR) (setting [3]), the “% DAMGO + BFNA” value is recorded as 98.3%. Besides, the “% DAMGO (1 μM)” value in the assay on mu opiate receptor (MOR) (setting [4]) was 115.8%.

Consider `Cc1cccc(S(=O)(=O)N2CCC3(CC2)OCCN3S(=O)(=O)c2cccc(C)c2)c1` [Compound C0014], for which, in assay [1] (setting [5]), the inhibition at 0.01 µM was found to be 29.5%. Moreover, in assay [1] (setting [6]), the inhibition at 0.1 µM turned out to be 38.8%. Further, the inhibition at 1 µM in assay [1] (setting [7]) came to 40%. In addition, in the assay with mu opiate receptor (MOR) (setting [8]), the “% DAMGO (0.1 μM)” value was determined as 82.0%. Further, the “Concentration of FLNA-Binding Compound as Agonist 0.1 μM” value (from here on “Concentration … as Agonist 0.1 μM”) in the assay on mu opiate receptor (MOR) (setting [9]) was 144.9%. Further, in the assay with mu opiate receptor (MOR) (setting [10]), the “Concentration of FLNA-Binding Compound as Agonist 1 μM + BFNA” value (“Concentration … as Agonist 1 μM + BFNA” below) was found to be 76.3%. Moreover, in the assay with mu opiate receptor (MOR) (setting [11]), the “% DAMGO + BFNA” value was 116.1%. Further, the “% DAMGO (1 μM)” value in the assay on mu opiate receptor (MOR) (setting [12]) was 59.2%. Further, the “Concentration of FLNA-Binding Compound as Agonist 1 μM” value in the assay on mu opiate receptor (MOR) (setting [13]) is given as 153.5%.

Regarding `CNc1ccc(S(=O)(=O)N2CCC3(CC2)OCCN3S(=O)(=O)c2ccc(NC)cc2)cc1` [Compound C0024], the inhibition at 0.01 µM in assay [1] (setting [14]) was 37.9%. In assay [1] (setting [15]), the inhibition at 0.1 µM is 46.4%. In assay [1] (setting [16]), the inhibition at 1 µM worked out at 50.4%. Besides, in the assay on mu opiate receptor (MOR) (setting [8]), the “% DAMGO (0.1 μM)” value came to 92.8%. In addition, the “Concentration … as Agonist 0.1 μM” value in the assay on mu opiate receptor (MOR) (setting [9]) stood at 178.4%. Also, the “Concentration … as Agonist 1 μM + BFNA” value in the assay on mu opiate receptor (MOR) (setting [10]) is reported as 59.3%. Also, the “% DAMGO + BFNA” value in the assay with mu opiate receptor (MOR) (setting [11]) was determined as 135.1%. Also, in the assay on mu opiate receptor (MOR) (setting [12]), the “% DAMGO (1 μM)” value was 84.1%. In addition, the “Concentration of FLNA-Binding Compound as Agonist 1 μM” value with mu opiate receptor (MOR) (setting [13]) is on record as 229.6%.

Turning to `COc1ccc(OCC(O)CN2CC(C)OC(C)C2)cc1` (centres unmarked) [Compound A0048], in assay [1] (setting [5]), the inhibition at 0.01 µM was determined as 38.5%. Further, the inhibition at 0.1 µM in assay [1] (setting [6]) worked out at 44%. For the same molecule, in assay [1] (setting [7]), the inhibition at 1 µM was 46.9%. Moreover, the “MOR agonist activity ([35S]GTPγS binding), FLNA-Binding Compound as Agonist 0.1 μM” value with mu opiate receptor (MOR) (0.1 μM compound) is 233.7%. The “% DAMGO (0.1 μM)” value in the assay with mu opiate receptor (MOR) (setting [2]) amounted to 119.1%. The “MOR agonist activity ([35S]GTPγS binding), FLNA-Binding Compound as Agonist 1 μM” value with mu opiate receptor (MOR) (1 μM compound) was determined as 302.9%. The “MOR agonist activity ([35S]GTPγS binding), FLNA-Binding Compound as Agonist 1 μM + BFNA” value with mu opiate receptor (MOR) is reported as 167.2%. In the assay with mu opiate receptor (MOR) (setting [3]), the “% DAMGO + BFNA” value stood at 226.3%. Further, the “% DAMGO (1 μM)” value with mu opiate receptor (MOR) (setting [4]) is given as 109.7%.

Turning to `COc1ccc(S(=O)(=O)N2CCSC23CCNCC3)cc1` [S-C0027], the inhibition at 0.01 µM in assay [1] (setting [14]) came out at 39.1%. Further, the inhibition at 0.1 µM in assay [1] (setting [15]) is 46.5%. Further, the inhibition at 1 µM in assay [1] (setting [16]) was found to be 53.6%. For the same molecule, the “% DAMGO (0.1 μM)” value with mu opiate receptor (MOR) (Series C-2, 0.1 μM compound, relative to DAMGO) is given as 74.2%. Further, the “MOR agonist activity, percent [35S]GTPγS binding at the stated compound concentration” value amounted to 156.2% with mu opiate receptor (MOR) (Series C-2, 0.1 μM compound, [35S]GTPγS binding to Gαo, striatal membranes); 56.2% in the assay on mu opiate receptor (MOR) (Series C-2, 1 μM compound + 1 μM β-FNA); 286.8% in the assay on mu opiate receptor (MOR) (Series C-2, 1 μM compound, [35S]GTPγS binding to Gαo, striatal membranes). Moreover, the “% DAMGO + BFNA” value in the assay with mu opiate receptor (MOR) (Series C-2, 1 μM compound + β-FNA, relative to DAMGO + BFNA) was found to be 98.1%. The “% DAMGO (1 μM)” value in the assay with mu opiate receptor (MOR) (Series C-2, 1 μM compound, relative to DAMGO) is listed as 84.4%.

As to `COc1ccc(S(=O)(=O)N2CCC3(OCCN3S(=O)(=O)c3ccc(OC)cc3)C3CCCCC32)cc1` (centres unmarked) [Compound C0144M], the inhibition at 0.01 µM in assay [1] (setting [14]) was determined as 46.4%. Further, the inhibition at 0.1 µM in assay [1] (setting [15]) was found to be 50.7%. Also, the inhibition at 1 µM in assay [1] (setting [16]) stood at 55.7%. Also, in the assay with mu opiate receptor (MOR) (setting [8]), the “% DAMGO (0.1 μM)” value stood at 108.3%. The “Concentration … as Agonist 0.1 μM” value in the assay with mu opiate receptor (MOR) (setting [9]) is 186.3%. Further, the “Concentration … as Agonist 1 μM + BFNA” value with mu opiate receptor (MOR) (setting [10]) came to 125.9%. In addition, the “% DAMGO + BFNA” value with mu opiate receptor (MOR) (setting [11]) came out at 137.9%. For the same molecule, in the assay with mu opiate receptor (MOR) (setting [12]), the “% DAMGO (1 μM)” value came out at 90.8%. Moreover, in the assay on mu opiate receptor (MOR) (setting [13]), the “Concentration of FLNA-Binding Compound as Agonist 1 μM” value is 295.9%.

Regarding `O=S(=O)(c1ccc(OC(F)(F)F)cc1)N1CCOC12CCN(CC1CC1)CC2` [Compound 4], the “Binding to FLNA (conclusion in words)” value in assay [1] (preliminary study) is “bound well to FLNA”. Moreover, the “MOR agonist activity, FLNA-Binding Compound as Agonist 0.1 μM (preliminary study)” value in the assay on mu opiate receptor (MOR) (0.1 μM, average of two runs) is listed as 133.9%. The “MOR agonist activity, FLNA-Binding Compound as Agonist 1 μM + βNFA (preliminary study)” value in the assay with mu opiate receptor (MOR) (1 μM + βNFA, average of two runs) worked out at 49.5%. In addition, the “MOR agonist activity, FLNA-Binding Compound as Agonist 1 μM (preliminary study)” value in the assay on mu opiate receptor (MOR) (1 μM, average of two runs) is reported as 165.2%. In the assay on mu opiate receptor (MOR) (preliminary study), the “MOR agonist activity (conclusion in words)” value is recorded as “not as potent a MOR agonist”.
